In the case of `Nc1nc2[nH]c(CCCc3cc(C(=O)N[C@@H](CCC(=O)O)C(=O)O)cs3)cc2c(=O)[nH]1`, the melting point – broadly, the temperature, or range, at which the solid turns liquid – was 191 to 192 °C.

As for `CC(C)Cn1c(-c2c(F)cccc2F)c(Cl)nc(-n2cccn2)c1=O`, the melting point is 118 to 119 °C.

`O=C(c1cc(O)c2occc2c1)c1ccco1` showed a melting point of 140 to 142 °C.

`Cc1cc(Cl)n2nc(S(=O)(=O)Nc3c(Cl)cccc3Cl)nc2n1`: the melting point was 217 to 220 °C.

Turning to `O=C(c1ccccc1)n1c(=O)c(C(F)(F)F)cn(C2CC(O)C(CO)O2)c1=O` (stereo not given), the melting point was 144 to 146 °C.

`O=C1Nc2ccccc2N2C(=O)OCC12` (stereo not given): the melting point was 230 to 231 °C.

For `Cc1cc(OC(=O)C(C)(C)C)c(C)c(C)c1OCc1ccccc1`, the melting point lay in the range of 50 to 53 °C.

Take `COc1ccc2cccc(Cl)c2c1`: the melting point was 32 to 34 °C.

Take `COC(=O)NNC(=S)CC(C)(C)C`: the melting point fell in the range of 72.5 to 73 °C.

Consider `Cn1ccnc1-c1ccc(-c2cnc([C@H](Cc3ccccn3)N(C=O)OC(C)(C)C)n2C)cc1`, for which the melting point lay in the range of 160 to 163 °C.

For the compound `Cc1ccc(S(=O)(=O)N2CCn3c(c(C(N)=O)c(Cl)c3-c3ccccc3)C2)cc1`, the melting point was 188 to 190 °C.

Compound `CC(=O)NCC=C1CCc2ccc3nn(C)cc3c21` displayed a melting point of 200 to 202 °C.

Take `Cc1nc2c3c(ccc2n1C)C(=O)C(OC(=O)C(C)(C)C)C(c1ccccc1)O3` (stereo not given): the melting point stood at 255 °C.

`COc1ccc(CC(=O)c2c(O)c3cccnc3n(-c3ccccc3)c2=O)cc1OC` showed a melting point of 161 to 163 °C.

On to `O=C(Cn1c(-c2ccc(Cl)cc2)nc2cccnc21)NCc1ccccc1`, for which the melting point is 200 °C.

Regarding `CCCNC(=O)CCCc1ccc2c(c1)c(Cc1ccc(C(=O)OC)cc1OC)cn2CCC`, the melting point turned out to be 100 °C.

In the case of `Cn1cc(C(N)=O)c(-c2ccc([N+](=O)[O-])o2)n1`, the melting point lay in the range of 251 to 252 °C.

For the compound `CC=NN(C(=O)c1ccccc1)c1ccc(OC)c(F)c1`, the melting point is 110 to 112 °C.

Regarding `CCN(CC)S(=O)(=O)c1ccc2[nH]c(-c3c(C)c(Cl)cc(C(C)(C)C)c3O)nc2c1`, the melting point lay in the range of 277 to 278 °C.

With `CCCCCC(C)C(C)c1cc(OC)c2c(c1)OC(C)(C)C1=C2CN(C(N)=NO)CC1` (stereo not given), the melting point is 176 to 178 °C.

As to `Cc1nc(C=O)c2n1-c1ccc(Cl)cc1C(c1ccccc1F)=NC2`, the melting point lay within 190 to 192 °C.

Compound `O=Cc1c2ccccc2cc2ccc(Cl)cc12` gave a melting point of 148 to 150 °C.

With `CC(C)Nc1cc(Cl)nnc1NN`, the melting point was 132 to 135 °C.

The compound `CN(Cc1ccccc1)Cc1c(-c2ccc(NC(=O)NCCO)cc2)sc2c1c(=O)n(-c1ccccc1)c(=O)n2Cc1c(F)cccc1F` had a melting point of 220 to 222 °C.

Turning to `O=C(O)/C=C/C=C/C=C/C1=Cc2ccccc2OC1`, the melting point was in the range of 206 to 208 °C.

The compound `CCn1c2ccc(C(=O)CC(C)=O)cc2c2cc(C(=O)c3ccc(F)cc3C)ccc21` showed a melting point of 132 °C.

For the compound `Cc1cc(=O)[nH]c2nc(CCCCCN3CCN(c4cccc(Cl)c4Cl)CC3)ccc12`, the melting point is 195 to 196 °C.

As to `N#Cc1cc(Cn2cncn2)cc(-c2ccccc2)c1`, the melting point fell in the range of 109 to 110 °C.

In the case of `NCC1CC(CCC(=O)O)=NO1` (stereo not given), the melting point turned out to be 201 °C.

As for `CC(=O)NCc1ccc(CN2CCN(c3ccc(F)cc3)CC2)cc1N`, the melting point was in the range of 163 to 164 °C.

`COc1ccc2c(CCN3CC=C(c4c[nH]c5ccccc45)CC3)coc2c1` came in with a melting point of 54 °C.

`Cc1ccn2c(=O)c(C(=O)NC3CCCC3)cnc2c1`: the melting point lay within 220 to 222 °C.

In turn, `CCc1nc(N)nc(N)c1CCC(C)c1ccc(C(F)(F)F)cc1` (stereo not given) returned a melting point of 48 to 55 °C.

On to `CN(C)c1n[nH]c(-c2ccc(Cl)cc2)c1CC(=O)O`, for which the melting point was in the range of 157 to 168 °C.

`COc1cc(C(=O)Nc2c(Cl)cncc2Cl)ccc1OC(F)F` gave a melting point of 170 °C.

These data come from a melting point compilation (Tetko et al.; mined from patent text by program, amines drawn as free bases though some values may be those of a salt).
